Results on one compound are retold here after ChEMBL document CHEMBL3124763.

The structures appear in SMILES notation. Activity calls are given as the source filed them. The rule behind the calls is not given here. Where a SMILES comes first, the peptide text is derived from it. The star is where a group is joined. Decanoyl = CCCCCCCCCC(=O)*; CH2Cl = ClC*

The target of this test is Furin (Homo sapiens) (UniProt P09958). The experiment in a line: Inhibition of furin in human HEK293FT cells assessed as HA5 maturation at 25 uM after 48 hrs by Western blotting analysis. The class given is cell-based.
Sequence of Furin (Homo sapiens) (P09958 whole entry): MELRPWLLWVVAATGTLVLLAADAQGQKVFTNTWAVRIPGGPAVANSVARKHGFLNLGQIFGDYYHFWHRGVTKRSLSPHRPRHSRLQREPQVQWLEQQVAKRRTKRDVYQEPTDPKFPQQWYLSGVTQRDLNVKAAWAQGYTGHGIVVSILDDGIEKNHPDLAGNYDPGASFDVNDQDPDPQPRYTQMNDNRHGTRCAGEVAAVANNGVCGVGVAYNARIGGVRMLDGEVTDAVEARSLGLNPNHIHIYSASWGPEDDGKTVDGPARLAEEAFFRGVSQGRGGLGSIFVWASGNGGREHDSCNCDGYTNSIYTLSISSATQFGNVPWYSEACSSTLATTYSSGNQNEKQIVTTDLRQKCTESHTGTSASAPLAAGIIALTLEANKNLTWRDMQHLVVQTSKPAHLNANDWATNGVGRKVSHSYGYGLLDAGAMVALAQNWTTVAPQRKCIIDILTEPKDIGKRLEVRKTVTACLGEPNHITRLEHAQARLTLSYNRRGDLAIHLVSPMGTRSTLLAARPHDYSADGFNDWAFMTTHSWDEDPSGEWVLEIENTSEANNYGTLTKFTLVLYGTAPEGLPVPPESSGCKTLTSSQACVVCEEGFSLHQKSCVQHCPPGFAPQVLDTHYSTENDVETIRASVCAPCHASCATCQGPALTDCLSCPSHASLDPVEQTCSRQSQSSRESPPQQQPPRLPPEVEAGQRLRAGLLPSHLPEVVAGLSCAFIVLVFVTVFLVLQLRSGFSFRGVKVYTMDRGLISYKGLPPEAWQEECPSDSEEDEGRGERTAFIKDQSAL

As for `CCCCCCCCCC(=O)N[C@@H](CCCNC(=N)N)C(=O)N[C@H](C(=O)N[C@@H](CCCCN)C(=O)N[C@@H](CCCNC(=N)N)C(=O)CCl)C(C)C` (Decanoyl-RVKR-CH2Cl), the inhibition entry is “Active”.
